Reference: patent US20090275608A1, “Methods of diagnosing and treating parp-mediated diseases” (BiPar Sciences, Inc., priority 2008, published 2009)
Entries after “also recorded” stand apart in the source; their conditions may differ.

Tests used:
OVCAR-3 xenograft [1] = assay: human ovarian adenocarcinoma OVCAR-3 xenograft model of cancer; format: in vivo, mice
Excerpt: Xenograft cancer models can be employed to measure the effects of treatment of PARP and co-regulated gene modulators on cancer growth and progression.
Moreover, ovarian adenocarcinoma OVCAR-3 cells produce IGF-I and IGF-II, and express IGF1R, supporting the existence of an autocrine loop.

MDA-MB-468 cells [2] = assay: FACS cell cycle analysis (PI DNA content), Compound III with IGF1R inhibitor; format: cell-based, human; settings: for G1 / G2/M / S / Sub-G1: MDA-MB-468
Experimental: (§1) The effects of Compound III and its nitroso metabolite on the cell cycle in cancer cell lines in combination with second agents were determined.
(§2) Compound III and Compound III-1 compounds were tested in the presence of the second agent according the schedule indicated in the Table below.
(§3) Cell Culture: Triple negative MDA-MB-468 human breast carcinoma, U251 human glioblastoma and lung adenocarcinoma HCC827 cells were cultured in Dulbecco Modified Eagle Medium with 10% fetal bovine serum. Cells were plated at a seeding density 10^5 per P100 or at 10^4 per P60 in growth media and incubated 12-18 h at 37° C., 5% CO2. Compounds with and without secondary agent (see Table 1) were added as a single dose for 72 hours. DMSO was used as a control. Following treatment, cells were analyzed with BrdU ELISA Assay (Roche Applied Science), FACS based cell cycle assay or TUNEL.
(§4) Compounds: Compound III was dissolved directly from dry powder in DMSO (cat #472301, Sigma-Aldrich) for each separate experiment, then the entire volume of the stock solution was used to prepare 111 nM, 313 nM and 1 μM working concentrations in cell culture medium to avoid any possibility of precipitation and the corresponding loss of compound.
(§5) PI Exclusion, Cell Cycle and TUNEL Assays (FACS): After the addition of drugs and incubation, cells were taken for counting and PI (Propidium Iodide) exclusion assay. One part of the cells was centrifuged and resuspended in 0.5 ml ice-cold PBS containing 5 μg/ml of PI. The other part of the cells was fixed in ice-cold 70% ethanol and stored in a freezer overnight. For cell cycle analysis, cells were stained with propidium iodide (PI) using standard procedures. Cellular DNA content was determined by flow cytometry using BD LSRII FACS, and the percentages of cells in G1, S or G2/M were determined using ModFit software.

HCC827 cells [3] = assay: FACS cell cycle analysis (PI DNA content), Compound III with EGFR inhibitor; format: cell-based, human
Experimental: as §1, §2, §3, §4, §5

HCC827 cells [4] = assay: TUNEL apoptosis assay (FACS), Compound III with EGFR inhibitor; format: cell-based, human; settings: GFT 2 nM + 201 0 μM
Experimental: as §3, §4
(§6) To detect apoptosis, the cells were labeled with the “In Situ Cell Death Detection Kit, Fluorescein” (Roche Diagnostics Corporation, Roche Applied Science, Indianapolis, Ind.). […] All cell samples were analyzed with a BD LSR II (BD Biosciences, San Jose, Calif.). […]

OVCAR-3 xenograft [5] = settings: previous studies, Gotlieb et al., 2006; cited from earlier work
OVCAR-3 cells = settings: OVCAR-3 cell line, Gotlieb et al., 2006; cited from earlier work
OVCAR-4 cells = settings: OVCAR-4 cell line, Gotlieb et al., 2006; cited from earlier work
NFκB = settings: multiple myeloma cells, Hideshima et al., 2002; cited from earlier work
MDA-MB-468 cells [6] = assay: BrdU labeling assay (FACS / ELISA), Compound III with IGF1R inhibitor; format: cell-based, human
Experimental: as §3, §4
Bromodeoxyuridine (BrdU) labeling assay and FACS-based cell cycle analysis: 50 μl of BrdU (Sigma Chemical Co., St. Louis, Mo.) stock solution (1 mM) was added to achieve final concentration of 10 μM BrdU. Then cells were incubated for 30 min at 37° C. and fixed in ice-cold 70% ethanol and stored at 4° C. overnight. […] All cell samples were analyzed with a BD LSR II (BD Biosciences, San Jose, Calif.). […]

MDA-MB-468 cells [7] = assay: TUNEL apoptosis assay (FACS), Compound III with IGF1R inhibitor; format: cell-based, human
Experimental: as §3, §4, §6

MDA-MB-468 cells [8] = assay: cell counting and PI exclusion assay (cell survival), Compound III with IGF1R inhibitor; format: cell-based, human
Experimental: as §3, §4
as §5, with “The other part of the cells was fixed in ice-cold 70% ethanol and stored in a freezer overnight. For cell cycle analysis, cells were stained with propidium iodide (PI) using standard procedures.” left out

NF-κB = settings: HeLa cells; cited from earlier work

## NC(=O)c1ccc(I)c([N+](=O)[O-])c1 [Compound III]
OVCAR-3 xenograft [1]; Compound III combined with NVP-AEW541, expected from the single-agent data
  tumor growth, combination of PARP inhibitor and IGF1R inhibitor: inhibit tumor growth in mice even further
OVCAR-3 xenograft [1]; OVCAR-3 xenograft, FIG. 18
  survival of mice: improve survival of mice; also recorded: improval of survival of mice
OVCAR-3 xenograft [1]; PARP1 inhibition by Compound III, OVCAR-3 xenograft in mice, FIG. 18
  tumor growth: inhibit tumor growth
MDA-MB-468 cells [2]; triple negative breast cancer cells MDA-MB-468, FIG. 19
  potentiation of the activity of IGF-1R inhibitor Picropodophyllin (PPP): potentiates the activity of IGF-1R inhibitor Picropodophyllin (PPP)
HCC827 cells [3]; HCC827 cell line
  potentiation of the activity of the EGF-R inhibitor IRESSA: potentiate the activity of the EGF-R inhibitor IRESSA®

## COc1cc2ncnc(Nc3ccc(F)c(Cl)c3)c2cc1OCCCN1CCOCC1 [GFT]
HCC827 cells [3]; HCC827, GFT 2 nM + 201 0 μM
  G1: 51.0
  G2/M: 9.2
  S: 34.4
  Sub-G1: 3.4
HCC827 cells [4]
  TUNEL(+): 6.2

## Nc1ncnc2c1c(-c1cccc(OCc3ccccc3)c1)cn2C1CC(CN2CCC2)C1 (stereo not shown) [NVP-AEW541]
OVCAR-3 xenograft [5]
  growth of OVCAR-3 tumor: can inhibit growth of OVCAR-3 tumor
OVCAR-3 cells
  growth of the cells: inhibited growth of the cells
OVCAR-4 cells
  growth of the cells: inhibited growth of the cells

## O=C(Nc1cc(Cl)cc2c1[nH]c1cnccc12)c1cccnc1 [PS-1145]
NFκB
  NFκB activation: blocked NFκB activation

## COc1cc([C@@H]2c3cc4c(cc3[C@H](O)[C@H]3COC(=O)[C@@H]23)OCO4)cc(OC)c1OC [Picropodophyllin]
MDA-MB-468 cells [2]; PPP 200 nM + 201 0 uM
  G1: 51.42
  G2/M: 15.01
  S: 30.22
  Sub-G1: 1.22
MDA-MB-468 cells [2]; PPP 400 nM + 201 0 uM
  G1: 37.29
  G2/M: 20.17
  S: 25.32
  Sub-G1: 7.77
MDA-MB-468 cells [6]; PPP 200 nM + 201 0 uM
  BrdU(−) S: 2.13
MDA-MB-468 cells [6]; PPP 400 nM + 201 0 uM
  BrdU(−) S: 9.45
MDA-MB-468 cells [7]; PPP 200 nM + 201 0 uM
  TUNEL(+): 0.9
MDA-MB-468 cells [7]; PPP 400 nM + 201 0 uM
  TUNEL(+): 4.1
MDA-MB-468 cells [8]; PPP 200 nM + 201 0 uM
  Vital Cell: 89
MDA-MB-468 cells [8]; PPP 400 nM + 201 0 uM
  Vital Cell: 60

## CCc1c2c(nc3ccc(O)cc13)-c1cc3c(c(=O)n1C2)COC(=O)[C@]3(O)CC [SN38, 7-ethyl-10-hydroxycamptothecin]
NF-κB
  NF-κB nuclear translocation and activation of NF-κB target genes: induce NF-κB nuclear translocation and activation of NF-κB target genes

## CC(C)C[C@H](NC(=O)[C@H](Cc1ccccc1)NC(=O)c1cnccn1)B(O)O [bortezomib]
NFκB
  NFκB activation: blocked NFκB activation

## COc1cccc2c1C(=O)c1c(O)c3c(c(O)c1C2=O)C[C@@](O)(C(=O)CO)C[C@@H]3O[C@H]1C[C@H](N)[C@H](O)[C@H](C)O1 [doxorubicin]
NF-κB
  NF-κB nuclear translocation and activation of NF-κB target genes: induce NF-κB nuclear translocation and activation of NF-κB target genes
